One data set has as its system NSCLC cell lines. The data set can be described thus: NCI DTP human tumor cell line screen, NSCLC panel. As to conditions: NSCLC (8 cell lines). In kind it is cell-based. An excerpt: (§1) The United States National Cancer Institute (NCI) provides a developmental therapeutics program (DTP) (http://dtp.nci.nih.gov/branches/btb/ivelsp.html) to screen submitted substances in support of cancer drug discovery. The In Vitro Cell Line Screening Project (IVCLSP) is a dedicated service providing direct support to the DTP anticancer drug discovery program and is designed to screen up to 3,000 compounds per year for potential anticancer activity. The operation of this screen utilizes 60 different human tumor cell lines, representing leukemia, melanoma and cancers of the lung, colon, brain, ovary, breast, prostate, and kidney. The aim is to prioritize for farther evaluation, synthetic compounds or natural product samples showing selective growth inhibition or cell killing of particular tumor cell lines. This screen is unique in that the complexity of a 60 cell line dose response produced by a given compound results in a biological response pattern which can be utilized in pattern recognition algorithms (COMPARE program. See: http://dtp.nci.nih.gov/docs/compare/compare.html). Using these algorithms, it is possible to assign a putative mechanism of action to a test compound, or to determine that the response pattern is unique and not similar to that of any of the standard prototype compounds included in the NCI database. […]

Data set [1] deals with Ovarian Cancer cell lines. Briefly: NCI DTP human tumor cell line screen, ovarian cancer panel. In kind it is cell-based. As to conditions: Ovarian Cancer (6 cell lines).
Source text: as §1

The next data set relates to Prostate cell lines. The data set can be described thus: NCI DTP human tumor cell line screen, prostate panel. In kind it is cell-based. As to conditions: Prostate (2 cell lines).
Source text: as §1

Data set [2] in a line: Non-specific binding to 24-well assay plate without cells. The format is in vitro ADME. The conditions noted are these: single well of a 24-well assay plate without cells, nominal conc. 1.0 μM, single well of 24-well plate without cells. As to the method: To determine the extent of non-specific binding of the sample to the assay plate, the sample solution was incubated under the conditions described above in a single well of a 24-well assay plate. After 90 minutes, the sample was removed from each well for analysis. After all samples were collected, lucifer yellow solution was added to each monolayer at a final concentration of 100 μM. The inserts were placed in a new receiver plate containing transport buffer. After a 30 min. incubation on an orbital shaker (50 rpm) at 37° C., with ambient humidity and CO2, samples were removed from the receiver chamber to measure percent lucifer yellow flux.
The recovery of Compound A from the apical and basolateral chambers (mass balance) as well as from a single well of a 24-well culture plate without cells (non-specific binding) at the end of the incubation is reported in Table 9.

The results in this text go back to US20150374709A1, “TETRA-SUBSTITUTED NDGA DERIVATIVES VIA ETHER BONDS AND CARBAMATE BONDS AND THEIR SYNTHESIS AND PHARMACEUTICAL USE” (ERIMOS PHARMACEUTICALS LLC, priority 2006, published 2015).

For the molecule `C[C@H](Cc1ccc(OCCCN2CCCCC2)c(OCCCN2CCCCC2)c1)[C@@H](C)Cc1ccc(OCCCN2CCCCC2)c(OCCCN2CCCCC2)c1` [Compound A, 1,4-bis{3,4-bis[3-(piperidin-1-yl)propoxy]phenyl}-2,3-dimethyl-(2R,3S)-butane], the “Mean Growth Percent at 10 μM” value in the data set on NSCLC cell lines is recorded as −90.92%; in data set [1], −85.89%; in the data set on Prostate cell lines it was −95.47%. In addition, the recovery at 90 min, 1 μM in data set [2] stood at 13%.
